Among the data in patent publication US10350199B2, “3-(1h-pyrrolo[2,3-b]pyridin-2-yl)-1h-indazoles and therapeutic uses thereof” (Samumed, LLC, priority 2015, dated 2019) are EC50, Emax and inhibition values, retold here.

SMILES strings stand for the structures. Some results are limits rather than exact numbers.

What all share (type): cell-based
One assay relates to SW480 colon cancer cells. The experiment in a line: Cell viability assay (CellTiter-Blue), SW480 cells, four days. The settings on record: Homo sapiens; for EC50: 96 h, SW480 cell viability, four days, CellTiter-Blue; for inhibition at 10 µM: SW480, read-out: percent inhibition at 10 μM. In outline: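 Fluorescence from resazurin reduced to resorufin by metabolically active cells was the read-out, taken after ~3 h with CellTiter-Blue.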
(The colour change of resazurin is a common sign of viable cells or microbes.)

Assay [1] relates to IL-6 (THP-1 human monocyte cell line). Nature of the assay: IL-6 inhibition in LPS-stimulated THP-1 cells (HTRF). The settings on record: for EC50: IL-6 inhibition, LPS-stimulated THP-1 cells, HTRF; for inhibition at 10 µM: THP-1, read-out: percentage in parentheses beside EC50 >10 (IL-6 inhibition). In short, it runs like this: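 THP-1 cells kept 24 h in 1% FBS medium, treated 2 h at 37 °C, then stimulated with 500 ng/mL LPS for another 22 h. IL-6 measured by HTRF as the 665/620 nm ratio; EC50 from a four-parameter fit normalized to DMSO controls.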
(In general: In TR-FRET formats the signal depends on donor and acceptor labels being close together.)

Assay [2] deals with primary human fibroblasts derived from IPF patients (LL29 cells) treated with TGF-β1. The experiment in a line: Inhibition of the fibrotic process: αSMA staining in TGF-β1 treated LL29 fibroblasts. The conditions noted are these: Fibroblast; for EC50: 96 h, LL29 cells, TGF-β1 20 ng/mL, 4 days, % αSMA positive cells; for inhibition at 10 µM: read-out: percent inhibition at 10 μM. In outline: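 IPF-patient-derived LL29 lung fibroblasts in F12 with 1% FBS, stimulated with TGF-β1 alongside compound; TGF-β1 plus DMSO wells served as controls. After 4 days, nuclei stained with 1 μM SYTOX green for 30 min at room temperature, alongside αSMA staining.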

The subject of assay [3] is primary human mesenchymal stem cells (hMSCs). The experiment in a line: Induction of chondrogenesis in human mesenchymal stem cells (nodule area, Rhodamine B/Nile Red). The conditions noted are these: hMSC chondrogenesis; for Emax: relative to TGF-β3 (10 ng/mL) positive control, read-out: Max. Activity as % TGF-β3 activity; for EC50: concentration required to induce 50% levels of chondrogenesis of TGF-β3 positive control, read-out: Conc (nM) of 50% TGF-β3 activity. In outline: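 Primary hMSCs at passage 3-6 were treated with compound; nodule area per well was normalized to the mean of 3 DMSO wells, averaged over 2-3 replicates, and the concentration giving 50% chondrogenesis relative to TGF-β3 control, plus maximum activity and its dose, was derived.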

The subject of assay [4] is Wnt activity (Sp5-Luc reporter, SW480 colon carcinoma cells). Nature of the assay: Wnt activity screening assay, Sp5-Luc reporter gene in SW480 cells. The settings on record: Homo sapiens; for EC50: Sp5-Luc reporter, SW480 cells, overnight incubation; for inhibition at 10 µM: SW480, read-out: percent inhibition at 10 μM. In short, it runs like this:
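SW480 cells stably transduced with lentiviral Sp5 promoter (eight TCF/LEF sites)-firefly luciferase, plated at 4,000 cells/well in 1% FBS medium and incubated overnight at 37° C. Luminescence read after BrightGlo addition, normalized to DMSO-only cells; EC50 from four-parameter variable-slope nonlinear regression.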
A general note: Reporter assays use an easily measured gene product as a stand-in for the process of interest.

As for `O=C(Nc1cncc(-c2ccc3[nH]nc(-c4cc5cccnc5[nH]4)c3c2)c1)C1CCCC1` [Compound 274, N-(5-(3-(1H-Pyrrolo[2,3-b]pyridin-2-yl)-1H-indazol-5-yl)pyridin-3-yl) cyclopentanecarboxamide], the EC50 with SW480 colon cancer cells is 0.656 µM; in assay [1] it was 0.018 µM; in assay [2], 0.427 µM; in assay [4] it was 0.271 µM. Also, in assay [3], the Emax amounted to 30%.

Usually inhibition stands for the share of the control response that was lost under treatment. For the molecule `c1cnc2[nH]c(-c3n[nH]c4ccc(-c5cncnc5)cc34)cc2c1` [Compound 279, 5-(Pyrimidin-5-yl)-3-(1H-pyrrolo[2,3-b]pyridin-2-yl)-1H-indazole], the EC50 in the assay on SW480 colon cancer cells is above 10 µM; in assay [1], 0.14 µM; in assay [2], 9.84 µM; in assay [3] it was 10 nM; in assay [4] it was above 10 µM. Moreover, the inhibition at 10 µM in the assay with SW480 colon cancer cells stood at 17.9%; in assay [4], 16.6%. Moreover, the Emax in assay [3] was determined as 84%.

For the molecule `c1cncc(-c2ccc3[nH]nc(-c4cc5c(-c6ccsc6)ccnc5[nH]4)c3c2)c1` [Compound 284, 5-(Pyridin-3-yl)-3-(4-(thiophen-3-yl)-1H-pyrrolo[2,3-b]pyridin-2-yl)-1H-indazole], the EC50 in the assay with SW480 colon cancer cells was 0.352 µM; in assay [1], 0.347 µM; in assay [2] it was 2.2 µM; in assay [4], above 10 µM. Also, the Emax in assay [3] stood at 39%. Besides, the inhibition at 10 µM in assay [4] worked out at 38%.

As for `c1cc(-c2ccsc2)c2cc(-c3n[nH]c4ccc(-c5cncc(CN6CCCCC6)c5)cc34)[nH]c2n1` [Compound 295, 5-(5-(Piperidin-1-ylmethyl)pyridin-3-yl)-3-(4-(thiophen-3-yl)-1H-pyrrolo[2,3-b]pyridin-2-yl)-1H-indazole], the EC50 was above 10 µM in the assay with SW480 colon cancer cells; above 10 µM in assay [1]; above 10 µM in assay [2]; 30 nM in assay [3]; above 10 µM in assay [4]. Also, the inhibition at 10 µM was 2.1% in the assay with SW480 colon cancer cells, 34.9% in assay [1], 16.8% in assay [2] and 37.1% in assay [4]. Moreover, the Emax in assay [3] came to 73%.

Regarding `Cc1ccncc1-c1ccc2[nH]nc(-c3cc4c(-c5ccoc5)ccnc4[nH]3)c2c1` [Compound 313, 3-(4-(Furan-3-yl)-1H-pyrrolo[2,3-b]pyridin-2-yl)-5-(4-methylpyridin-3-yl)-1H-indazole], the EC50 in the assay on SW480 colon cancer cells is above 10 µM; in assay [1], 1.01 µM; in assay [2], above 10 µM; in assay [3], 100 nM; in assay [4] it was 4.29 µM. For the same molecule, the figures for the inhibition at 10 µM (in the assay with SW480 colon cancer cells; in assay [2]) were 0% and 36.3%, respectively. For the same molecule, the Emax in assay [3] is 67%.

Regarding `CC(C)(C)CC(=O)Nc1cncc(-c2ccc3[nH]nc(-c4cc5c(-c6ccoc6)ccnc5[nH]4)c3c2)c1` [Compound 324, N-(5-(3-(4-(Furan-3-yl)-1H-pyrrolo[2,3-b]pyridin-2-yl)-1H-indazol-5-yl)pyridin-3-yl)-3,3-dimethylbutanamide], the EC50 with SW480 colon cancer cells is 9.2 µM; in assay [1] it was 0.694 µM; in assay [2], above 10 µM; in assay [4], 0.89 µM. The inhibition at 10 µM in assay [2] worked out at 0%. Further, in assay [3], the Emax was found to be 21%.

In the case of `Fc1cccc(-c2ccnc3[nH]c(-c4n[nH]c5ccc(C6CCNCC6)cc45)cc23)c1` [Compound 505, 3-(4-(3-Fluorophenyl)-1H-pyrrolo[2,3-b]pyridin-2-yl)-5-(piperidin-4-yl)-1H-indazole], the EC50 is 0.465 µM in the assay with SW480 colon cancer cells; 0.166 µM in assay [1]; 0.335 µM in assay [2]; 900 nM in assay [3]; 0.563 µM in assay [4]. For the same molecule, the Emax in assay [3] worked out at 103%.

For the molecule `Cn1cc(-c2ccc3[nH]nc(-c4cc5c(-c6cccnc6)ccnc5[nH]4)c3c2)cn1` [Compound 556, 5-(1-Methyl-1H-pyrazol-4-yl)-3-(4-(pyridin-3-yl)-1H-pyrrolo[2,3-b]pyridin-2-yl)-1H-indazole], the EC50 was above 10 µM with SW480 colon cancer cells, 0.586 µM in assay [1], 0.191 µM in assay [2] and above 10 µM in assay [4]. For the same molecule, the inhibition at 10 µM is 0% with SW480 colon cancer cells and 20% in assay [4]. The Emax in assay [3] amounted to 28%.

Turning to `CN1CCN(c2ccnc3[nH]c(-c4n[nH]c5ccc(-c6cncc(NC(=O)CC7CCNCC7)c6)cc45)cc23)CC1` [Compound 641, N-(5-(3-(4-(4-Methylpiperazin-1-yl)-1H-pyrrolo[2,3-b]pyridin-2-yl)-1H-indazol-5-yl)pyridin-3-yl)-2-(piperidin-4-yl)acetamide], the EC50 (in the assay with SW480 colon cancer cells; in assay [1]; in assay [2]; in assay [4]) was above 10 µM in each case. The inhibition at 10 µM in the assay with SW480 colon cancer cells came out at 16.2%; in assay [1], 26%; in assay [2], 23.5%; in assay [4], 10.8%. In addition, the Emax in assay [3] was found to be 17%.

On to `c1cnc2[nH]c(-c3n[nH]c4ccc(-c5cncc(OCCN6CCCC6)c5)cc34)cc2c1` [Compound 658, 5-(5-(2-(Pyrrolidin-1-yl)ethoxy)pyridin-3-yl)-3-(1H-pyrrolo[2,3-b]pyridin-2-yl)-1H-indazole], for which the EC50 in the assay on SW480 colon cancer cells was found to be 3.94 µM; in assay [1], 0.205 µM; in assay [2] it was 1.2 µM; in assay [4], 3.29 µM. The Emax in assay [3] was found to be 43%.

Turning to `COc1cncc(-c2ccc3[nH]nc(-c4cc5c(-c6ccoc6)ccnc5[nH]4)c3c2)c1` [Compound 692, 3-(4-(Furan-3-yl)-1H-pyrrolo[2,3-b]pyridin-2-yl)-5-(5-methoxypyridin-3-yl)-1H-indazole], the EC50 (in the assay on SW480 colon cancer cells; in assay [1]; in assay [2]; in assay [4]) was above 10 µM each time. Besides, the inhibition at 10 µM in the assay with SW480 colon cancer cells was determined as 0%; in assay [1], 43.9%; in assay [2], 0%; in assay [4], 20%. In addition, the Emax in assay [3] was 26%.

Turning to `CN(C)Cc1cncc(-c2cc(F)c3[nH]nc(-c4cc5c(-c6cccc(F)c6)ccnc5[nH]4)c3c2)c1` [Compound 992, 1-(5-(7-Fluoro-3-(4-(3-fluorophenyl)-1H-pyrrolo[2,3-b]pyridin-2-yl)-1H-indazol-5-yl)pyridin-3-yl)-N,N-dimethylmethanamine], the EC50 (in the assay on SW480 colon cancer cells; in assay [1]; in assay [2]; in assay [4]) was above 10 µM throughout. The inhibition at 10 µM in the assay with SW480 colon cancer cells was determined as 3.6%; in assay [1], 34.2%; in assay [2] it was 5.2%; in assay [4], 17%. The Emax in assay [3] came out at 35%.

`CN(C)Cc1cncc(-c2cc3c(-c4cc5c(-c6cccc(F)c6)ccnc5[nH]4)n[nH]c3cc2F)c1` [Compound 993, 1-(5-(6-Fluoro-3-(4-(3-fluorophenyl)-1H-pyrrolo[2,3-b]pyridin-2-yl)-1H-indazol-5-yl)pyridin-3-yl)-N,N-dimethylmethanamine]: the EC50 in the assay with SW480 colon cancer cells is 2.4 µM; in assay [1] it was 0.852 µM; in assay [2] it was 1.63 µM; in assay [4], above 10 µM. Besides, the Emax in assay [3] stood at 28%.

In the case of `CN(C)Cc1cncc(-c2ccc3[nH]nc(-c4cc5c(-c6cccc(F)c6)ccnc5[nH]4)c3c2F)c1` [Compound 994, 1-(5-(4-Fluoro-3-(4-(3-fluorophenyl)-1H-pyrrolo[2,3-b]pyridin-2-yl)-1H-indazol-5-yl)pyridin-3-yl)-N,N-dimethylmethanamine], the EC50 in the assay on SW480 colon cancer cells was above 10 µM; in assay [1], above 10 µM; in assay [2], 4.9 µM; in assay [4], above 10 µM. Besides, the inhibition at 10 µM turned out to be 34.7% with SW480 colon cancer cells, 36.6% in assay [1] and 20.8% in assay [4]. The Emax in assay [3] worked out at 21%.
